Reference: the supplement of paper PMC11061612

Assays:
Assay in all cases: Bliss excess, mean over the matrix (fraction); higher = more synergy
[1] = tested on: MLMA (Other Blood Carcinomas)
In short: (§1)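 Bliss excess equals the observed combination effect minus the expected value EA + EB − EA·EB, where EA and EB are the effects of each agent alone. Combination Emax is the second-highest inhibition within the matrix. Inhibition was scaled from CellTiter-Glo 2.0 luminescence, with 0 set by vehicle wells and 1 by blank wells, after 72 hours of two-drug dosing of cells plated in 1536-well plates.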

UACC-62 (Melanoma) = tested on: UACC-62 (Melanoma)
In short: as §1

[2] = tested on: EFM-19 (Breast Carcinoma)
In short: as §1

[3] = tested on: NCI-H727 (Other Solid Carcinomas)
In short: as §1

YH-13 (Glioblastoma) = tested on: YH-13 (Glioblastoma)
In short: as §1

NB69 (Neuroblastoma) = tested on: NB69 (Neuroblastoma)
In short: as §1

D-263MG (Glioblastoma) = tested on: D-263MG (Glioblastoma)
In short: as §1

[4] = tested on: AMO-1 (Plasma Cell Myeloma)
In short: as §1

EW-24 (Ewing's Sarcoma) = tested on: EW-24 (Ewing's Sarcoma)
In short: as §1

TK10 (Kidney Carcinoma) = tested on: TK10 (Kidney Carcinoma)
In short: as §1

[5] = tested on: LU-65 (Non-Small Cell Lung Carcinoma)
In short: as §1

[6] = tested on: KARPAS-299 (T-Cell Non-Hodgkin's Lymphoma)
In short: as §1

[7] = tested on: KYSE-450 (Esophageal Squamous Cell Carcinoma)
In short: as §1

[8] = tested on: PANC-04-03 (Pancreatic Carcinoma)
In short: as §1

[9] = tested on: MIA-PaCa-2 (Pancreatic Carcinoma)
In short: as §1

[10] = tested on: RF-48 (B-Cell Non-Hodgkin's Lymphoma)
In short: as §1

[11] = tested on: NCI-H358 (Lung Adenocarcinoma)
In short: as §1

[12] = tested on: EoL-1-cell (Acute Myeloid Leukemia)
In short: as §1

ACHN (Kidney Carcinoma) = tested on: ACHN (Kidney Carcinoma)
In short: as §1

TGW (Neuroblastoma) = tested on: TGW (Neuroblastoma)
In short: as §1

Row | Compound | Bliss excess [1] | Bliss excess (UACC-62 (Melanoma)) | Bliss excess [2] | Bliss excess [3] | Bliss excess (YH-13 (Glioblastoma)) | Bliss excess (NB69 (Neuroblastoma)) | Bliss excess (D-263MG (Glioblastoma)) | Bliss excess [4] | Bliss excess (EW-24 (Ewing's Sarcoma)) | Bliss excess (TK10 (Kidney Carcinoma)) | Bliss excess [5] | Bliss excess [6] | Bliss excess [7] | Bliss excess [8] | Bliss excess [9] | Bliss excess [10] | Bliss excess [11] | Bliss excess [12] | Bliss excess (ACHN (Kidney Carcinoma)) | Bliss excess (TGW (Neuroblastoma))
1 | CN(CCO)CC[C@H](CSc1ccccc1)Nc1ccc(S(=O)(=O)NC(=O)c2ccc(N3CCC([C@@H](O)c4ccccc4-c4ccc(Cl)cc4)CC3)cc2)cc1S(=O)(=O)C(F)(F)F [AZD4320] + CCN(CCO)CCCOc1ccc2c(Nc3cc(CC(=O)Nc4cccc(F)c4)[nH]n3)ncnc2c1 [AZD2811] (first compound max 1 µM, 7x7, partner max 1 µM) | 0.0437 | 0.0105 | 0.147 | -0.0221 | 0.0819 | -0.0077 | 0.0665 | -0.0102 | 0.0538 | -0.0199 | -0.0437 | 0.0104 | -0.0273 | -0.0435 | 0.0532 | 0.0643 | -0.0337 | -0.002 | 0.0089 | -0.032
2 | Cc1cc2ncnn2cc1Nc1ncc2c(n1)n(C1CCOCC1)c(=O)n2C [AZD7648] + O=C(c1cc(Cc2n[nH]c(=O)c3ccccc23)ccc1F)N1CCN(C(=O)C2CC2)CC1 [Olaparib] (first compound max 10 µM, 7x7, partner max 10 µM) | -0.0087 | -0.0219 | -0.0652 | -0.0641 | -0.0272 | -0.0397 | -0.0367 | -0.0231 | -0.0449 | -0.0843 | -0.0146 | -0.0098 | -0.0635 | -0.0369 | -0.0246 | 0.0158 | -0.0179 | 0.0142 | -0.0243 | -0.0248
3 | CN(CCO)CC[C@H](CSc1ccccc1)Nc1ccc(S(=O)(=O)NC(=O)c2ccc(N3CCC([C@@H](O)c4ccccc4-c4ccc(Cl)cc4)CC3)cc2)cc1S(=O)(=O)C(F)(F)F [AZD4320] + Cn1cnc2c(F)c(Nc3ccc(Br)cc3Cl)c(C(=O)NOCCO)cc21 [Selumetinib] (first compound max 1 µM, 7x7, partner max 3 µM) | 0.0436 | -0.0035 | -0.102 | 0.0963 | -0.0219 | -0.0973 | -0.0094 | 0.0579 | -0.0352 | -0.0867 | 0.0176 | 0.0476 | 0.0177 | 0.0708 | -0.0098 | -0.0317 | 0.0054 | 0.0593 | 0.0429 | 0.0147
4 | CN(CCO)CC[C@H](CSc1ccccc1)Nc1ccc(S(=O)(=O)NC(=O)c2ccc(N3CCC([C@@H](O)c4ccccc4-c4ccc(Cl)cc4)CC3)cc2)cc1S(=O)(=O)C(F)(F)F [AZD4320] + Cc1cc2ncnn2cc1Nc1ncc2c(n1)n(C1CCOCC1)c(=O)n2C [AZD7648] (first compound max 1 µM, 7x7, partner max 10 µM) | 0.0082 | -0.0329 | -0.0326 | -0.0609 | -0.0186 | -0.0649 | -0.0192 | -0.0243 | -0.0171 | -0.014 | -0.007 | -0.0343 | -0.0383 | -0.0556 | -0.0636 | -0.0205 | -0.0394 | 0.0476 | -0.0186 | 0.0125
5 | Cc1cc2ncnn2cc1Nc1ncc2c(n1)n(C1CCOCC1)c(=O)n2C [AZD7648] + COc1cc([C@@H]2c3cc4c(cc3[C@@H](O[C@@H]3O[C@@H]5CO[C@@H](C)O[C@H]5[C@H](O)[C@H]3O)[C@H]3COC(=O)[C@H]23)OCO4)cc(OC)c1O [Etoposide] (first compound max 10 µM, 7x7, partner max 10 µM) | -0.0968 | 0.045 | -0.0295 | -0.0041 | 0.0877 | -0.0239 | 0.0729 | 0.138 | 0.0463 | 0.0187 | 0.0212 | 0.0522 | 0.0385 | 0.017 | 0.05 | 0.0671 | -0.0079 | 0.191 | 0.0535 | 0.0615
6 | Cc1cc2ncnn2cc1Nc1ncc2c(n1)n(C1CCOCC1)c(=O)n2C [AZD7648] + C[C@@H]1COCCN1C2=NC(=NC(=C2)C3(CC3)[S@](=N)(=O)C)C4=C5C=CNC5=NC=C4 [AZD6738] (first compound max 10 µM, 7x7, partner max 10 µM) | -0.0289 | 0.0529 | 0.0323 | 0.0381 | 0.0821 | 0.0172 | -0.0206 | -0.0184 | -0.0023 | 0.0062 | -0.0392 | -0.0183 | 0.0281 | 0.0123 | -0.0254 | 0.0071 | 0.0099 | -0.0123 | -0.0316 | 0.0388
7 | CN(CCO)CC[C@H](CSc1ccccc1)Nc1ccc(S(=O)(=O)NC(=O)c2ccc(N3CCC([C@@H](O)c4ccccc4-c4ccc(Cl)cc4)CC3)cc2)cc1S(=O)(=O)C(F)(F)F [AZD4320] + Nc1ccn([C@@H]2O[C@H](CO)[C@@H](O)C2(F)F)c(=O)n1 [Gemcitabine] (first compound max 1 µM, 7x7, partner max 0.3 µM) | -0.0381 | -0.006 | 0.0067 | 0.0335 | 0.0368 | -0.0203 | -0.0625 | -0.036 | 0.118 | 0.0032 | -0.0667 | 0.0251 | -0.0497 | -0.0496 | -0.025 | -0.0365 | -0.0227 | 0.0217 | 0.0947 | 0.0257
8 | C[C@@H](c1ccc2nccn2c1)n1nnc2ncc(-c3cnn(C)c3)nc21 [Savolitinib] + Cc1c2c(nn1C)CSCc1cc(n(C)n1)CSc1cc(c3ccccc3c1)OCCCc1c(C(=O)O)n(C)c3c-2c(Cl)ccc13 [AZD5991] (first compound max 1 µM, 7x7, partner max 1 µM) | -0.0122 | 0.0285 | -0.0236 | -0.0099 | 0.023 | -0.0122 | -0.0571 | 0.0251 | -0.0237 | -0.0486 | -0.0437 | 0.081 | -0.0186 | -0.0216 | -0.007 | -0.029 | -0.0538 | 0.0703 | -0.0103 | -0.0467
9 | N#Cc1cnc(Nc2cc(NC[C@H]3CNCCO3)c(C(F)(F)F)cn2)cn1 [SRA737] + O=c1[nH]cc(F)c(=O)[nH]1 [5-Fluorouracil] (first compound max 10 µM, 7x7, partner max 20 µM) | -0.0455 | -0.0561 | 0.0189 | 0.001 | 0.0119 | -0.0068 | -0.0456 | -0.0004 | 0.0101 | -0.0549 | 0.0104 | 0.0529 | -0.0348 | 0.0102 | -0.0352 | -0.0095 | -0.0743 | -0.0084 | -0.0547 | -0.0389
10 | Cc1cc2ncnn2cc1Nc1ncc2c(n1)n(C1CCOCC1)c(=O)n2C [AZD7648] + CCN(CCO)CCCOc1ccc2c(Nc3cc(CC(=O)Nc4cccc(F)c4)[nH]n3)ncnc2c1 [AZD2811] (first compound max 10 µM, 7x7, partner max 1 µM) | -0.0095 | -0.0027 | 0.116 | -0.0003 | -0.0762 | -0.0195 | 0.0415 | 0.0431 | -0.0051 | 0.0024 | 0.0057 | 0.0493 | 0.0246 | -0.0078 | 0.0108 | 0.0013 | -0.0718 | -0.0572 | -0.0051 | 0.0148
11 | CN(CCO)CC[C@H](CSc1ccccc1)Nc1ccc(S(=O)(=O)NC(=O)c2ccc(N3CCC([C@@H](O)c4ccccc4-c4ccc(Cl)cc4)CC3)cc2)cc1S(=O)(=O)C(F)(F)F [AZD4320] + C1CN(CCC1(C(=O)N[C@@H](CCO)C2=CC=C(C=C2)Cl)N)C3=NC=NC4=C3C=CN4 [Capivasertib] (first compound max 1 µM, 7x7, partner max 3 µM) | 0.0534 | -0.0584 | -0.0292 | -0.0891 | -0.0491 | -0.0554 | -0.0512 | -0.0045 | -0.0378 | -0.0676 | -0.0108 | -0.0024 | -0.0449 | -0.0875 | -0.0476 | -0.0097 | -0.0172 | 0.0007 | -0.0341 | 0.0065
12 | CN(CCO)CC[C@H](CSc1ccccc1)Nc1ccc(S(=O)(=O)NC(=O)c2ccc(N3CCC([C@@H](O)c4ccccc4-c4ccc(Cl)cc4)CC3)cc2)cc1S(=O)(=O)C(F)(F)F [AZD4320] + C[C@@H]1COCCN1C2=NC(=NC(=C2)C3(CC3)[S@](=N)(=O)C)C4=C5C=CNC5=NC=C4 [AZD6738] (first compound max 1 µM, 7x7, partner max 10 µM) | 0.0229 | -0.0317 | -0.0511 | -0.0735 | -0.0035 | -0.0533 | -0.0424 |  | 0.0267 | -0.0797 | -0.0092 | -0.0153 | -0.0496 | -0.0714 | -0.045 | 0.0017 | -0.0195 | 0.0252 | -0.0099 | -0.0629
13 | CN(CCO)CC[C@H](CSc1ccccc1)Nc1ccc(S(=O)(=O)NC(=O)c2ccc(N3CCC([C@@H](O)c4ccccc4-c4ccc(Cl)cc4)CC3)cc2)cc1S(=O)(=O)C(F)(F)F [AZD4320] + C[C@@H](Nc1cc(F)cc(F)c1)c1cc(C(=O)N(C)C)cc2c(=O)cc(N3CCOCC3)oc12 [AZD8186] (first compound max 1 µM, 7x7, partner max 3 µM) | 0.0859 | 0.102 | -0.0426 | 0.0309 | 0.0513 | -0.0381 | 0.0288 | 0.0318 | -0.0214 | -0.032 | -0.0216 | 0.044 | -0.07 | 0.0202 | -0.0084 | 0.0072 | -0.0461 | 0.0255 | 0.0163 | -0.027
